Assay [1] concerns C33A cervical carcinoma cells. Put plainly: caspase activation in lysates of treated cells (apoptosis). The note with it: C33A cancer cell line; 16 hr incubation; positive = 1.5-fold (150%) of dimethyl sulfoxide control. Type of assay: cell-based. How it is done: (§1) H1299 non-small cell lung carcinoma cells, C33A cervical carcinoma cells, Mrc-5 normal lung fibroblasts (American Type Culture Collection, Manassas, Va. USA) and HMEC normal mammary epithelial cells (Clonetics San Diego, Calif., USA) were maintained in media recommended by the American Type Culture Collection. Cells were harvested and suspended at 2.5–5×10^5 cells/ml in media. A 45 μL aliquot of cell suspension was added to each well of a 96-well microtiter plate (PerkinElmer Life Sciences Inc, Boston, Mass. USA). Cells were incubated overnight in a 5% CO2-95% humidity incubator at 37° C. and then, 5 μL of a 10% dimethyl sulfoxide (Sigma-Aldrich Inc., St. Louis, Mo. USA) solution containing various concentrations of Compound 79 or 5 μL of 10% dimethyl sulfoxide (solvent control) were added. The plates were further incubated for 16 hr. […]
(§2) The reaction was then filtered using Sephadex G-10 Poly-Prep chromatography column (Amersham Biosciences, Inc, Piscataway, N.J., USA). […] The number of radioactive counts per minute (cpm) in each well of the sample plate was measured using a liquid scintillation counter (PerkinElmer Life Sciences Inc, Boston, Mass. USA). The potency of caspase cascade activation was determined by the percentage increase in cpm in wells compared to cells treated only with dimethyl sulfoxide.

Assay [2] has as its system H1299 non-small cell lung carcinoma cells. The description is as above. Type of assay: cell-based. The note with it: H1299 cancer cell line; 16 hr incubation; positive = 1.5-fold (150%) of dimethyl sulfoxide control. How it is done:
as §1, §2

The structures appear in SMILES notation.

Consider `COC1=CC(c2ccc[nH]2)=N/C1=C/c1cc2ccccc2[nH]1` [Compound 79, 4-methoxy-5-(1H-indol-2yl-methylene)-2,2′-bi-1H-pyrrole], for which the “Concentration Required for Positive Caspase Activation” value in assay [1] was 125 µM; in assay [2], 250 µM.

These data come from patent publication US7144912B2, “Pyrrole-type compounds, compositions, and methods for treating cancer, treating viral diseases and causing immunosuppression” (Gemin X Biotechnologies Inc., priority 2001, dated 2006).
